Experimental data taken from patent publication US6387411B2, “Method for producing dispersible sterol and stanol compounds” (McNeil-PPC, Inc., priority 1998, dated 2002).

How the values were obtained:
[1] = Turbidity of ground sterol/docusate sodium matrix shaken in water; type: physicochemical; details: shaken 30 seconds in 25 milliliter deionized water; for Turbidity, Series 2: measured after standing 20 minutes; for Turbidity, Series 1: measured after standing one minute
Procedure: Yet another method to determine whether the desired level of hydrocarbon has been added to the sterol/stanol, is to measure the turbidity of the solution after 100 milligrams of the ground sterol/stanol/hydrocarbon are added to water. The greater turbidity value, the more effectively the solid solution is able to be dispersed in water. […] Preferred turbidity levels are greater than about 1500, preferably greater than 2000 and most preferably greater than 3000 Nephelometric Turbidity Units (NTU). As used herein turbidity is understood to be the same as defined by the United States Pharmacopeia, 15th Edition, the light scattering effect of suspended particles and turbidity as the measure of the decrease in the incident beam intensity per unit length of a given suspension. The range of turbidty values is from 0 to 20,000 NTU. As a point of reference the turbidity of water is zero. The turbidity of the samples is measured at room temperature.
A docusate sodium/β-sitosterol matrix was prepared. The sample was shaken for 30 seconds in a vial containing 25 milliliter deionized water. In Series 1, turbidity measurements were taken after allowing the shaken sample to stand one minute. In Series 2, measurements were made after standing for 20 minutes.

[2] = Wetting and time to disperse of powdered matrix in unstirred water; type: physicochemical; details: similar conditions to Example 5 (200 mg in 250 ml water); up to three days vigorous stirring
Excerpt: Another technique for measuring the crystallinity of the solid matrix is to measure the time in which a ground powdered sample of the solid takes to disperse in unstirred water. When an appropriate amount of the appropriate hydrocarbon material has been added, […], preferably in less than about 45 seconds and most preferably less than about 30 seconds. Agitation, including mild agitation such as a stirring bar, can be employed to enhance the dissolution of the solid solution in water.
Additional sitosterol/docusate sodium matrices were prepared and added to water.

Row | Structure (SMILES) | Turbidity, Series 2 [1] [NTU] | Turbidity, Series 1 [1] [NTU] | Wetting in water [2]
1 | CCCCC(CC)COC(=O)CC(C(=O)OCC(CC)CCCC)S(=O)(=O)[O-].[Na+] (centres unmarked) [100% docusate sodium, docusate sodium] | 0.441 | 1.22 | 
2 | CC[C@H](CC[C@@H](C)[C@H]1CC[C@H]2[C@@H]3CC=C4C[C@@H](O)CC[C@]4(C)[C@H]3CC[C@]12C)C(C)C [100% sterol, β-sitosterol] | 523 | 1301 | does not wet at all
